Laboratory results published in the supplement of paper PMC10307832.

Legend:
Test in all cases: relative viability (nuclei count vs DMSO), 5 days (fraction); higher = more cells survive
Tivantinib + Linsitinib = compound: O=C1NC(=O)[C@@H](c2cn3c4c(cccc24)CCC3)[C@@H]1c1c[nH]c2ccccc12 [Tivantinib] + C[C@]1(O)C[C@@H](c2nc(-c3ccc4ccc(-c5ccccc5)nc4c3)c3c(N)nccn32)C1 [Linsitinib] (partner 1 µM)
In short: (§1)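 Relative viability equals treated-well nuclei counts divided by vehicle-well nuclei counts. Counts came from 4× images of lung cancer cell lines grown in 1536-well plates for 5 days after pin-tool dosing on the day after seeding. Dosing used one drug alone or a fixed anchor-drug dose plus five library-drug doses (not always all listed) in √10 steps, and values are medians of duplicate plates.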

Tivantinib + Decitabine = compound: O=C1NC(=O)[C@@H](c2cn3c4c(cccc24)CCC3)[C@@H]1c1c[nH]c2ccccc12 [Tivantinib] + Nc1ncn([C@H]2C[C@H](O)[C@@H](CO)O2)c(=O)n1 [Decitabine] (partner 2 µM)
In short: as §1

Tivantinib + Trametinib = compound: O=C1NC(=O)[C@@H](c2cn3c4c(cccc24)CCC3)[C@@H]1c1c[nH]c2ccccc12 [Tivantinib] + CC(=O)Nc1cccc(-n2c(=O)n(C3CC3)c(=O)c3c(Nc4ccc(I)cc4F)n(C)c(=O)c(C)c32)c1 [Trametinib] (partner 0.02 µM)
In short: as §1

Crenolanib + Luminespib = compound: CC1(COc2ccc3c(c2)ncn3-c2ccc3cccc(N4CCC(N)CC4)c3n2)COC1 [Crenolanib] + CCNC(=O)c1noc(-c2cc(C(C)C)c(O)cc2O)c1-c1ccc(CN2CCOCC2)cc1 [Luminespib] (partner 0.01 µM)
In short: as §1

Row | Cell Line | relative viability (Tivantinib + Linsitinib; first compound 0.01 µM) | relative viability (Tivantinib + Linsitinib; first compound 0.1 µM) | relative viability (Tivantinib + Linsitinib; first compound 0.3162 µM) | relative viability (Tivantinib + Decitabine; first compound 0.01 µM) | relative viability (Tivantinib + Decitabine; first compound 0.03162 µM) | relative viability (Tivantinib + Decitabine; first compound 0.1 µM) | relative viability (Tivantinib + Decitabine; first compound 0.3162 µM) | relative viability (Tivantinib + Trametinib; first compound 0.01 µM) | relative viability (Tivantinib + Trametinib; first compound 0.03162 µM) | relative viability (Tivantinib + Trametinib; first compound 0.1 µM) | relative viability (Tivantinib + Trametinib; first compound 0.3162 µM) | relative viability (Tivantinib + Linsitinib; first compound 0.03162 µM) | relative viability (Crenolanib + Luminespib; first compound 0.01 µM) | relative viability (Crenolanib + Luminespib; first compound 0.03162 µM) | relative viability (Crenolanib + Luminespib; first compound 0.1 µM) | relative viability (Crenolanib + Luminespib; first compound 0.3162 µM) | relative viability (Crenolanib + Luminespib; first compound 1 µM)
1 | IA-LM | 0.593 | 0.586 | 0.538 |  |  |  |  |  |  |  |  |  |  |  |  |  | 
2 | LC-2-ad | 0.917 | 0.837 | 0.741 | 0.858 | 0.838 | 0.815 | 0.804 | 0.912 | 0.879 | 0.851 | 0.903 | 0.772 | 1.07 | 0.929 | 0.955 | 0.963 | 0.756
3 | LCLC-97TM1 | 0.176 | 0.174 | 0.14 | 0.232 | 0.226 | 0.226 | 0.211 | 0.211 | 0.218 | 0.189 | 0.178 | 0.174 | 0.777 | 0.749 | 0.792 | 0.844 | 0.753
4 | LCLC-103H | 1.03 | 1.03 | 0.996 | 0.658 | 0.762 | 0.731 | 0.708 | 0.6 | 0.736 | 0.69 | 0.668 | 0.944 | 1.02 | 0.922 | 0.878 | 1.06 | 0.863
5 | LK-2 | 0.816 | 0.497 | 0.355 | 0.233 | 0.196 | 0.262 | 0.29 | 0.723 | 0.454 | 0.683 | 0.518 |  | 0.169 | 0.18 | 0.16 | 0.17 | 0.199
6 | LOU-NH91 | 0.859 | 0.958 | 0.536 | 0.825 | 0.805 | 0.803 | 0.669 | 0.724 | 0.762 | 0.81 | 0.691 | 0.884 | 0.326 | 0.304 | 0.33 | 0.303 | 0.317
7 | LU99A | 0.537 | 0.523 | 0.384 | 0.869 | 0.853 | 0.865 | 0.849 | 0.436 | 0.494 | 0.505 | 0.521 | 0.54 | 0.253 | 0.217 | 0.219 | 0.287 | 0.207
8 | LXF-289 | 0.982 | 0.906 | 0.927 | 0.37 | 0.375 | 0.367 | 0.367 | 0.628 | 0.631 | 0.628 | 0.669 | 0.971 | 0.657 | 0.772 | 0.617 | 0.722 | 0.711
9 | NCI-H23 | 0.539 | 0.626 | 0.561 | 0.333 | 0.294 | 0.31 | 0.318 | 0.509 | 0.352 | 0.37 | 0.347 | 0.579 | 0.235 | 0.279 | 0.226 | 0.216 | 0.174
10 | NCI-H322M | 0.94 | 0.938 | 0.398 | 0.615 | 0.703 | 0.715 |  | 0.486 | 0.471 | 0.449 |  | 0.864 | 0.949 | 0.88 | 0.752 | 0.769 | 0.802
11 | NCI-H358 | 0.725 | 0.617 | 0.328 | 0.212 | 0.227 | 0.189 | 0.145 | 0.127 | 0.124 | 0.147 | 0.128 | 0.717 | 1.3 | 0.307 | 0.232 | 0.343 | 0.337
12 | NCI-H441 | 0.383 | 0.563 | 0.463 | 0.22 | 0.261 | 0.139 | 0.239 | 0.476 | 0.405 | 0.448 | 0.352 | 0.508 | 0.387 | 0.393 | 0.333 | 0.433 | 0.359
13 | NCI-H460 | 0.833 | 0.746 | 0.683 | 0.496 | 0.499 | 0.427 | 0.458 | 0.172 | 0.114 | 0.286 | 0.169 | 0.637 | 0.0489 | 0.039 | 0.0453 | 0.0313 | 0.0348
14 | NCI-H522 |  |  |  | 0.715 | 0.551 | 0.633 | 0.535 | 0.859 | 0.605 | 0.815 | 0.645 |  | 1.01 | 0.993 | 1.15 | 1.17 | 1.21
15 | NCI-H1299 | 0.941 | 0.92 | 1.04 |  |  |  |  |  |  |  |  | 0.946 |  |  |  |  | 
16 | NCI-H1563 | 1.22 | 1.07 | 1.1 |  |  |  |  |  |  |  |  | 1.25 | 0.552 | 0.499 | 0.531 | 0.517 | 0.478
17 | NCI-H1623 |  |  |  |  |  |  |  |  |  |  |  |  | 0.582 | 0.41 | 0.457 | 0.633 | 0.357
18 | NCI-H1648 |  |  |  |  | 0.507 | 0.513 | 0.397 |  | 0.505 | 0.343 | 0.31 |  |  |  |  |  | 
19 | NCI-H1650 |  |  |  | 0.406 | 0.389 | 0.416 | 0.413 | 0.451 | 0.663 | 0.666 | 0.536 |  | 0.193 | 0.231 | 0.203 | 0.213 | 0.178
20 | NCI-H1703 | 0.828 | 0.783 | 0.687 |  |  |  |  |  |  |  |  | 0.456 |  |  |  |  | 
21 | NCI-H2170 |  |  |  | 0.47 | 0.48 | 0.486 |  | 0.934 | 0.847 | 0.844 |  |  | 0.741 | 0.568 | 0.761 | 1.02 | 0.672
22 | NCI-H2228 | 0.639 | 0.519 | 0.627 |  |  |  |  | 0.608 | 0.396 | 0.494 | 0.227 | 0.538 | 0.137 | 0.15 | 0.105 | 0.193 | 0.228
23 | NCI-H2342 |  |  |  | 0.845 | 0.789 | 0.699 | 0.624 | 0.749 | 0.764 | 0.782 | 0.665 |  | 0.822 | 0.701 | 0.779 | 0.77 | 0.807
24 | SW 900 |  |  |  | 0.461 | 0.46 | 0.482 | 0.443 | 0.775 | 0.649 | 0.734 | 0.763 |  | 0.167 | 0.177 | 0.172 | 0.218 | 0.196
